Assay results as given in patent publication US20060035813A1, “Methods and formulations comprising agonists and antagonists of nuclear hormone receptors” (priority 2002, published 2006).
Entries after “also recorded” stand apart in the source; their conditions may differ.

Columns and labels:
[1] = system: tyrosine aminotransferase (TAT) in HTC cells; type: cell-based, rat
[2] = system: constitutive luciferase vector, pGL3 control; type: cell-based
[3] = target: T1, glucocorticoid receptor (GR) (Rattus norvegicus, UniProt P06536); type: cell-based
T1 construct: expressed in transfected cells; host or cells: Cos7
T1 sequence (P06536 1-795): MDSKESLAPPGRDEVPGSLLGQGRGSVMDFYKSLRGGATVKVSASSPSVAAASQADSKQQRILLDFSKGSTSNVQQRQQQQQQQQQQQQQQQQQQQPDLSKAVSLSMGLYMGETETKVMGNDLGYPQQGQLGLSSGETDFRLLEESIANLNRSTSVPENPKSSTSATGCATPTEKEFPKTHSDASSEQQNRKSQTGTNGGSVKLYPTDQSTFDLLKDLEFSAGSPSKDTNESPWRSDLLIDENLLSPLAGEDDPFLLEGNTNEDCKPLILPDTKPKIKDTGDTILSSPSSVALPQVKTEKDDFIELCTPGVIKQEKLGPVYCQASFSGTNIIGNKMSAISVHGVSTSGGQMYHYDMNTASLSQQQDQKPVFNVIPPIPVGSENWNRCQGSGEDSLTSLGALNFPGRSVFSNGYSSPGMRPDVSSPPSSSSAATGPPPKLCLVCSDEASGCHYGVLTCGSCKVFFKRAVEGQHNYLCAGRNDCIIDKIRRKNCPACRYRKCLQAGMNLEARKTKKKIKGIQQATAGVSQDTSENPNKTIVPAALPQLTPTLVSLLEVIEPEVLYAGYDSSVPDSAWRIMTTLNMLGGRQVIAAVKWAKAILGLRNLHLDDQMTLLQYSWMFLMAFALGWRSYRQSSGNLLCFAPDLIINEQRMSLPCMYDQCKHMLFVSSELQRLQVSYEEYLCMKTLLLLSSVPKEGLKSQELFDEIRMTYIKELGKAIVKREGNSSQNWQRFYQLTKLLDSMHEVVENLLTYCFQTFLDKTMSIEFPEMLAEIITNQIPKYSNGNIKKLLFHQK

[4] = target: T2, progesterone receptor B (PR-B) (Homo sapiens, UniProt P06401); conditions: 100 nM progesterone; 2 ng/ml LF+500 ng/ml PA; RU486 up to 1 μM; pLTR luc
T2 sequence (P06401 1-933): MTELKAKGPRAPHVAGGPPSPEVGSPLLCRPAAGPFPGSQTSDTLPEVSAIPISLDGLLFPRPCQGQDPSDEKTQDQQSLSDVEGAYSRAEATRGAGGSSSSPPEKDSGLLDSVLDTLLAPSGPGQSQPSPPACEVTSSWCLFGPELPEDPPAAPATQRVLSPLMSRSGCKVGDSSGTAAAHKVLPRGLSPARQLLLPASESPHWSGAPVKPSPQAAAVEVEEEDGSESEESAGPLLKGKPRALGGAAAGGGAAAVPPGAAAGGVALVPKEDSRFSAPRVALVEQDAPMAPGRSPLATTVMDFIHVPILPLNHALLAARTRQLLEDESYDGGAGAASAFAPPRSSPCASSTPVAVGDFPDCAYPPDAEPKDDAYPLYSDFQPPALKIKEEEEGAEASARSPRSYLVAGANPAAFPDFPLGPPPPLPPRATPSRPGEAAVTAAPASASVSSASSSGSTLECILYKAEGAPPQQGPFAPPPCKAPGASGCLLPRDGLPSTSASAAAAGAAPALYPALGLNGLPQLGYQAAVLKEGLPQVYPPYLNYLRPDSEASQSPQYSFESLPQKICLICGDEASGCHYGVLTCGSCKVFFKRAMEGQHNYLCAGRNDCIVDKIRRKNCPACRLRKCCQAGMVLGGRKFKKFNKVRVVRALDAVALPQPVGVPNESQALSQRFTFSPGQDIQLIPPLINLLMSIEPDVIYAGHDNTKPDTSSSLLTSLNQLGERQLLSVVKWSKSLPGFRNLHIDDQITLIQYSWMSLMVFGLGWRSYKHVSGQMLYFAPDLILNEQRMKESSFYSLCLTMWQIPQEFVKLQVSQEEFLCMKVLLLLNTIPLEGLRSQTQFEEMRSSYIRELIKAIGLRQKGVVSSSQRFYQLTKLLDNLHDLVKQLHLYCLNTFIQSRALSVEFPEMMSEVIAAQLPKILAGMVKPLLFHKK

[5] = system: Raw264.7 cells; type: cell-based
[6] = system: J774.1 cells; type: cell-based
[7] = target: T1, glucocorticoid receptor (GR); type: binding

Compound: C[C@@H]1C[C@H]2[C@@H]3CCC4=CC(=O)C=C[C@]4(C)[C@@]3(F)[C@@H](O)C[C@]2(C)[C@@]1(O)C(=O)CO [Dex, dexamethasone]
- Dex concentration as low as which TAT is induced [1]: 10 nM
- induction of TAT activity [1]: approximately 10 fold

Compound: COc1cccc(-c2cc(=O)c3ccccc3o2)c1N [PD98059]
- effect on constitutive luciferase (pGL3 control) [2]: decreased luciferase activity; also recorded: non-specific suppressive effect on luciferase
- effect of MAPK inhibitor on dexamethasone-induced TAT activity [1]: repress dexamethasone-induced TAT activity
- GR/GRE-specific effect of MAPK pathway inhibitor on Dex-induced GR transactivation [3]: does not affect GR transactivation; also recorded: no GRE specific effect; also recorded: did not alter GR repression; also recorded: does not have any GR specific effect
- effect on GRE-luciferase activity [3]: decreased luciferase activity

Compound: CC#C[C@]1(O)CC[C@H]2[C@@H]3CCC4=CC(=O)CCC4=C3[C@@H](c3ccc(N(C)C)cc3)C[C@@]21C [RU 486, mifepristone]
- repression of progesterone-induced PR-B transactivation in the presence of LeTx [4]: fully repress
- effect of pretreatment on LeTx toxicity [5]: does not prevent LeTx toxicity
- effect of pretreatment on LeTx toxicity [6]: does not prevent LeTx toxicity
- competition with [3H] dexamethasone for binding to GR [7]: can compete
- mode of GR repression / antagonism [3]: competitive antagonist
- repression of Dex-induced GR transactivation in the presence of LeTx [3]: fully repressed; also recorded: fully repress

Compound: C[S+]([O-])c1ccc(-c2nc(-c3ccncc3)c(-c3ccc(F)cc3)[nH]2)cc1 (centres unmarked) [SB203580]
- effect of MAPK inhibitor on dexamethasone-induced TAT activity [1]: repress dexamethasone-induced TAT activity
- GR/GRE-specific effect of MAPK pathway inhibitor on Dex-induced GR transactivation [3]: has no effect on GR-mediated transactivation

Compound: Nc1nccc(-c2c(-c3ccc(F)cc3)ncn2C2CCNCC2)n1 [SB220025]
- effect of MAPK inhibitor on dexamethasone-induced TAT activity [1]: repress dexamethasone-induced TAT activity

Compound: COc1ccc(C2CNC(=O)C2)cc1OC1CCCC1 (centres unmarked) [rolipram]
- effect of rolipram on LeTx toxicity [5]: does not prevent LeTx toxicity
- effect on LeTx repression of dexamethasone-induced TAT activity [1]: does not prevent LeTx repression
